Experimental data from publication PMC6018633, “Structural bases of TRP channel TRPV6 allosteric modulation by 2-APB” (Nature Communications, 2018).

Legend:
[1] = molecular target: TRPV6* (rat TRPV6 residues 1-668 with I62Y, L92N and M96Q) (rat) (UniProt Q9R186); test: crystal structure; TRPV6* constructs purified in DDM, without or with 1 mM 2-APB or 2-APB-Br; hanging drop, 20 °C, 20-24% PEG 350 MME, 50 mM NaCl, 50 mM Tris-HCl pH 8.0-8.5
[2] = tested on: TRPV4; conditions: cited from earlier work
[3] = molecular target: wild-type hTRPV6 (Homo sapiens, UniProt Q9H1D0); test: cell-based
Experimental: (§1) Arrows indicate the times when 2-APB and Ca^2+ were added. […] The changes in the fluorescence intensity ratio at 340 and 380 nm (F340/F380) evoked by addition of 2 mM Ca^2+ after preincubation with various concentrations of 2-APB were normalized to the maximal change in F340/F380 after addition of 2 mM Ca^2+ in the absence of 2-APB. […] Error bars represent SEMs
(§2) For crystallization experiments, we used the previously developed construct TRPV6*[39], which includes wild-type rat TRPV6 (rTRPV6) residues 1–668 and three point mutations (I62Y, L92N, and M96Q), and the TRPV6*-Y466A construct, which contains an additional point mutation, Y466A. For calcium uptake measurement experiments, we used TRPV6*, rTRPV6, and rTRPV6 with individual alanine substitutions (rTRPV6-E402A, rTRPV6-H425A, rTRPV6-Y466A, rTRPV6-R469A, and rTRPV6-M602A), wild-type human TRPV6 (hTRPV6), hTRPV6 with a single tyrosine-to-alanine substitution (hTRPV6-Y467A), wild-type rat TRPV1 (rTRPV1), rat TRPV2 (rTRPV2) and mouse TRPV3 (mTRPV3), and their mutant versions with single tyrosine-to-alanine substitutions (rTRPV1-Y554A, rTRPV2-Y514A, and mTRPV3-Y564A, respectively). For cryo-EM experiments, we used hTRPV6 and hTRPV6-Y467A constructs.
(§3) The intracellular Ca^2+ measurements from HEK 293 cells expressing different TRP channel constructs (see above) were performed similarly to those described previously[39],[49]. Briefly, to measure 2-APB-dependent inhibition of TRPV6 activity, cells expressing TRPV6 constructs were suspended in Ca^2+-free buffer and transferred to a quartz cuvette. After an initial 100-s equilibration period, 2-APB was added to the cuvette and incubated for another 100 s, before 2 mM CaCl2 was added. For the TRPV6-E402A mutant, 5 mM instead of 2 mM CaCl2 was added. For intracellular Ca^2+ measurements from HEK 293 cells expressing TRPV1, TRPV2, or TRPV3, the experiments were carried out with prewarmed modified HBS (118 mM NaCl, 4.8 mM KCl, 1 mM MgCl2, 2.5 mM CaCl2, 5 mM D-glucose, 10 mM HEPES pH 7.4). Briefly, HEK 293 cells expressing TRPV1/2/3 channels were centrifuged at 600×g, resuspended in modified HBS containing 5 μg/mL of Fura 2-AM (Life Technologies), and incubated at 37 °C for 45 min. Next, the cells were centrifuged for 5 min at 600×g, resuspended in prewarmed, modified HBS, and incubated again at 37 °C for 20–30 min in the dark. The cells were subsequently pelleted and washed twice, and then resuspended in modified HBS for fluorescence measurements. Intracellular Ca^2+ was measured by taking the ratio of fluorescence (510 nm) emitted from Fura 2-AM after excitation at either a wavelength of 340 nm (excites Ca^2+ bound Fura 2-AM) or 380 nm (excites Ca^2+ free Fura 2-AM). The excitation wavelength was switched at 1-s intervals. ΔF340/F380 was measured as the difference between baseline F340/F380 ratio recorded before the addition of Ca^2+ (for TRPV6 experiments) or 2-APB (for TRPV1-3) and the maximum F340/F380 after addition of either Ca^2+ or 2-APB. Data were normalized to ΔF340/F380 in the absence of 2-APB (for TRPV6 constructs) or the ΔF340/F380 value at saturating concentrations of 2-APB (for TRPV1/2/3).

[4] = molecular target: TRPV6* (rat TRPV6 residues 1-668, I62Y, L92N, M96Q) (Rattus norvegicus, UniProt Q9R186, I102Y/L132N/M136Q); test: cell-based
Experimental: as §1, §2, §3

[5] = molecular target: hTRPV6-Y467A (Homo sapiens, UniProt Q9H1D0, Y507A); test: cell-based
Experimental: as §1, §2, §3

[6] = molecular target: wild-type rTRPV6 (Rattus norvegicus, UniProt Q9R186); test: cell-based
Experimental: as §1, §2, §3

[7] = tested on: TRPV5; conditions: cited from earlier work
[8] = tested on: rat TRPV1 (rTRPV1-Y554A); conditions: leftward shift of 2-APB concentration dependence; HEK 293 cells, Fura-2
Excerpt: (§4) Fig. 5 Probing of the 2-APB binding site in different TRPV channels. a–c Dose–response curves for 2-APB activation of wild-type (black) and mutant (red) rat TRPV1 (a), rat TRPV2 (b), and mouse TRPV3 (c) channels with alanine substitution of the conserved tyrosine in the presumed 2-APB binding pocket. Each data point represents an average of n = 3–7 measurements with error bars representing SEMs. d, e Close-up view of superposition of the 2-APB binding pocket in the TRPV6*2-APB crystal structure (cyan) and the corresponding regions of rat TRPV1 (d) PDB ID: 5IRX, orange and rabbit TRPV2 (e) PDB ID: 5AN8, green. Phosphatidylcholine (PC), cholesterol and 2-APB molecules as well as the side chain of the conserved tyrosine are shown as sticks
(§5) For crystallization experiments, we used the previously developed construct TRPV6*[39], which includes wild-type rat TRPV6 (rTRPV6) residues 1–668 and three point mutations (I62Y, L92N, and M96Q), and the TRPV6*-Y466A construct, which contains an additional point mutation, Y466A. […]
(§6) The intracellular Ca^2+ measurements from HEK 293 cells expressing different TRP channel constructs (see above) were performed similarly to those described previously[39],[49]. […] The cells were subsequently pelleted and washed twice, and then resuspended in modified HBS for fluorescence measurements. Intracellular Ca^2+ was measured by taking the ratio of fluorescence (510 nm) emitted from Fura 2-AM after excitation at either a wavelength of 340 nm (excites Ca^2+ bound Fura 2-AM) or 380 nm (excites Ca^2+ free Fura 2-AM). The excitation wavelength was switched at 1-s intervals. ΔF340/F380 was measured as the difference between baseline F340/F380 ratio recorded before the addition of Ca^2+ (for TRPV6 experiments) or 2-APB (for TRPV1-3) and the maximum F340/F380 after addition of either Ca^2+ or 2-APB. […] All Fura2-AM-based fluorescence measurements were conducted using a QuantaMaster^TM 40 (Photon Technology International) spectrofluorometer at room temperature in a quartz cuvette under constant stirring.

[9] = tested on: rat TRPV2 (rTRPV2-Y514A); conditions: leftward shift of 2-APB concentration dependence; HEK 293 cells, Fura-2
Excerpt: as §4, §5, §6

[10] = tested on: mouse TRPV3 (mTRPV3-Y564A); conditions: leftward shift of 2-APB concentration dependence; HEK 293 cells, Fura-2
Excerpt: as §4, §5, §6

[11] = molecular target: rTRPV6-E402A (Rattus norvegicus, UniProt Q9R186, E442A); test: cell-based
Excerpt: (§7) To further characterize the 2-APB binding site and to examine the contribution of individual residues to 2-APB inhibition, we introduced alanine substitutions at residues in the 2-APB binding pocket (E402, H425, Y466, R469, and M602) and tested 2-APB inhibition.
as §2
as §3, with “TRPV1/2/3). All Fura2-AM-based fluorescence measurements were conducted using a QuantaMaster^TM 40 (Photon Technology International) spectrofluorometer at room temperature in a quartz cuvette under constant stirring.” for “TRPV1/2/3).”

[12] = molecular target: rTRPV6-M602A (Rattus norvegicus, UniProt Q9R186, M642A); test: cell-based
Excerpt: as §7, §2
as §3, with “TRPV1/2/3). All Fura2-AM-based fluorescence measurements were conducted using a QuantaMaster^TM 40 (Photon Technology International) spectrofluorometer at room temperature in a quartz cuvette under constant stirring.” for “TRPV1/2/3).”

[13] = molecular target: rTRPV6-R469A (Rattus norvegicus, UniProt Q9R186, R509A); test: cell-based
Excerpt: as §7, §2
as §3, with “TRPV1/2/3). All Fura2-AM-based fluorescence measurements were conducted using a QuantaMaster^TM 40 (Photon Technology International) spectrofluorometer at room temperature in a quartz cuvette under constant stirring.” for “TRPV1/2/3).”

[14] = molecular target: rTRPV6-H425A (Rattus norvegicus, UniProt Q9R186, H465A); test: cell-based
Excerpt: as §7, §2
as §3, with “TRPV1/2/3). All Fura2-AM-based fluorescence measurements were conducted using a QuantaMaster^TM 40 (Photon Technology International) spectrofluorometer at room temperature in a quartz cuvette under constant stirring.” for “TRPV1/2/3).”

[15] = molecular target: rTRPV6-Y466A (Rattus norvegicus, UniProt Q9R186, Y506A); test: cell-based
Excerpt: as §7, §2
as §3, with “TRPV1/2/3). All Fura2-AM-based fluorescence measurements were conducted using a QuantaMaster^TM 40 (Photon Technology International) spectrofluorometer at room temperature in a quartz cuvette under constant stirring.” for “TRPV1/2/3).”

[16] = molecular target: the molecule itself; test: cryo-EM structure; hTRPV6-Y467A in amphipols, 0.35 mg/ml, without or with 1 mM 2-APB; C4 symmetry imposed
[17] = HEK 293 cells, Fura-2, logistic fit
[18] = HEK 293 cells, Fura-2, logistic fit, mean ± SEM

Chain of wild-type rTRPV6 (Q9R186 41-767 limits assumed): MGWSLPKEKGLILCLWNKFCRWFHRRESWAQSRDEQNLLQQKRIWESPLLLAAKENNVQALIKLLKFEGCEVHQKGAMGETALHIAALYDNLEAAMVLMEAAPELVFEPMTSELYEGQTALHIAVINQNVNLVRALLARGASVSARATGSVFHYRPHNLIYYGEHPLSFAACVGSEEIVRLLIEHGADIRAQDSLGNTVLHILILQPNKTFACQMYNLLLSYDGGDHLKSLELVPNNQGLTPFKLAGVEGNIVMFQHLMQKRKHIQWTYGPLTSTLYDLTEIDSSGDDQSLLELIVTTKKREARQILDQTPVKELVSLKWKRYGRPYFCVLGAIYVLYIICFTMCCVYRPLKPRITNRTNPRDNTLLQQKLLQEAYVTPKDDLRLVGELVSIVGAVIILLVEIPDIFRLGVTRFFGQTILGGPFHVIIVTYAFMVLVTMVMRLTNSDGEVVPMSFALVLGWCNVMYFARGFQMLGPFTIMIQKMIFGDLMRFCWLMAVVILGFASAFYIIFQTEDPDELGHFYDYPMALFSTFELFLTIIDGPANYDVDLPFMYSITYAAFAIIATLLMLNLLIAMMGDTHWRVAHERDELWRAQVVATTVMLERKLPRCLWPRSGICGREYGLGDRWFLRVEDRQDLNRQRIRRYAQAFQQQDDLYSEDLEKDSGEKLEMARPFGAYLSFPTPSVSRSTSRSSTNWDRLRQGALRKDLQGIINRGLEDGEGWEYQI
Chain of TRPV6* (rat TRPV6 residues 1-668, I62Y, L92N, M96Q) (Q9R186 1-668 I102Y/L132N/M136Q): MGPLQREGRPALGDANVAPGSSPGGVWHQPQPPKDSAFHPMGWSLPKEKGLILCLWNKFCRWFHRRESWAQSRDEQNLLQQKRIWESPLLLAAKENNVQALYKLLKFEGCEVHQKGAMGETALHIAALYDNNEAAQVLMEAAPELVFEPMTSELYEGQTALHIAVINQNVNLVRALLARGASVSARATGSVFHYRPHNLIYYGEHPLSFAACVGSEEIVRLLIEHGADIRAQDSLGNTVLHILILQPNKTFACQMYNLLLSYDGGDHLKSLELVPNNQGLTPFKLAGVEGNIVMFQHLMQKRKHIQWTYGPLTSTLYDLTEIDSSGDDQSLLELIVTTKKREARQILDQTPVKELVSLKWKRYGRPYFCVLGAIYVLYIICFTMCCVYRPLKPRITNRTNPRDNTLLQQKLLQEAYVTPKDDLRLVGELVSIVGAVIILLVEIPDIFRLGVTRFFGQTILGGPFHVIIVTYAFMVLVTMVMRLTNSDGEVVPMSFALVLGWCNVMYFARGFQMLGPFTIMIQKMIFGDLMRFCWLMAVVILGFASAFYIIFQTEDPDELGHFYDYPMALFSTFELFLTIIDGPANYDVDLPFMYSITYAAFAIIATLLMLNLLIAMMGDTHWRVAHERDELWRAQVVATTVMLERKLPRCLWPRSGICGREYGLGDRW
Chain of wild-type hTRPV6 (Q9H1D0 41-765 limits assumed): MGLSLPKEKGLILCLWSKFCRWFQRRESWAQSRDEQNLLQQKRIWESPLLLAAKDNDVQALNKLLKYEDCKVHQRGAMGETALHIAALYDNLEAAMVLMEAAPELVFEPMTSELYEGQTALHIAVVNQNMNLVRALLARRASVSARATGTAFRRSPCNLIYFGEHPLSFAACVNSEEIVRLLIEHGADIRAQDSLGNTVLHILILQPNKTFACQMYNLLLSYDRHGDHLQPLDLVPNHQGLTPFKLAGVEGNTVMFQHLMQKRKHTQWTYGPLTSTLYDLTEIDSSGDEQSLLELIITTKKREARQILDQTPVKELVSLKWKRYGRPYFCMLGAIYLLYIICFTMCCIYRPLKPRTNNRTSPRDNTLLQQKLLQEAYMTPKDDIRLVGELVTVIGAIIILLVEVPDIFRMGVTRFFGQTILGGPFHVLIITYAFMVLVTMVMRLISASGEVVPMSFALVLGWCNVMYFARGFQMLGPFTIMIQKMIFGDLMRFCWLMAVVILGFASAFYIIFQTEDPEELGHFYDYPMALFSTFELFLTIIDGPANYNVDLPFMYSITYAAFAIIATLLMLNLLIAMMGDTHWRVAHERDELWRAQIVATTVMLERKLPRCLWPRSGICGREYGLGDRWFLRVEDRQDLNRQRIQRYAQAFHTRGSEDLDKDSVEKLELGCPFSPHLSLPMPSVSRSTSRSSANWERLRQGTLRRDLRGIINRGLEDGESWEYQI
Chain of rTRPV6-R469A (Q9R186 41-767 R509A limits assumed): as the sequence (Q9R186 41-767 limits assumed) above, with R469A counted along it
Chain of rTRPV6-M602A (Q9R186 41-767 M642A limits assumed): as the sequence (Q9R186 41-767 limits assumed) above, with M602A counted along it
Chain of rTRPV6-E402A (Q9R186 41-767 E442A limits assumed): as the sequence (Q9R186 41-767 limits assumed) above, with E402A counted along it
Chain of rTRPV6-Y466A (Q9R186 41-767 Y506A limits assumed): as the sequence (Q9R186 41-767 limits assumed) above, with Y466A counted along it
Chain of rTRPV6-H425A (Q9R186 41-767 H465A limits assumed): as the sequence (Q9R186 41-767 limits assumed) above, with H425A counted along it

Molecule: TRPV6* (rat TRPV6 residues 1-668 with I62Y, L92N and M96Q) (from UniProt Q9R186 1-668) (domain or fragment)
- stoichiometry N [1]: 4

Molecule: NCCOB(c1ccccc1)c1ccccc1 [2-APB, 2-aminoethoxydiphenyl borate]
- 2-APB modulation of TRPV4 [2]: lack of measurable 2-APB modulation
- IC50 [3]: 274 ± 27 µM
- maximal inhibition of Ca2+ uptake, wild-type hTRPV6 [3, 17]: 72.6 ± 2.7%
- IC50 [4]: 156 ± 20 µM
- maximal inhibition of Ca2+ uptake, TRPV6* [4, 18]: 83.5 ± 2.9%
- IC50 [5]: 60 ± 13 µM
- maximal inhibition of Ca2+ uptake, hTRPV6-Y467A [5, 17]: 92.4 ± 8.1%
- increased potency of 2-APB inhibition, hTRPV6-Y467A compared to hTRPV6 ([5]; ratio of IC50 values): 4.5 fold
- IC50 [6]: 184 ± 8 µM
- maximal inhibition of Ca2+ uptake, wild-type rTRPV6 [6, 18]: 93.6 ± 1.1%
- 2-APB modulation of TRPV5 [7]: lack of measurable 2-APB modulation
- increase in 2-APB agonist potency, TRPV1 tyrosine-to-alanine mutant vs wild-type [8]: 3 fold
- increase in 2-APB agonist potency, TRPV2 tyrosine-to-alanine mutant vs wild-type [9]: 40 fold
- increase in 2-APB agonist potency, TRPV3 tyrosine-to-alanine mutant vs wild-type [10]: 20 fold
- IC50 [11]: 7.5 ± 2.1 µM
- IC50 [12]: 98 ± 19 µM
- IC50 [13]: 23.4 ± 1.6 µM
- IC50 [14]: 165 ± 32 µM
- IC50 [15]: 3.62 ± 0.54 µM

B1: human TRPV6 with a single tyrosine-to-alanine substitution (hTRPV6-Y467A) (natural protein)
chain: MGLSLPKEKGLILCLWSKFCRWFQRRESWAQSRDEQNLLQQKRIWESPLLLAAKDNDVQALNKLLKYEDCKVHQRGAMGETALHIAALYDNLEAAMVLMEAAPELVFEPMTSELYEGQTALHIAVVNQNMNLVRALLARRASVSARATGTAFRRSPCNLIYFGEHPLSFAACVNSEEIVRLLIEHGADIRAQDSLGNTVLHILILQPNKTFACQMYNLLLSYDRHGDHLQPLDLVPNHQGLTPFKLAGVEGNTVMFQHLMQKRKHTQWTYGPLTSTLYDLTEIDSSGDEQSLLELIITTKKREARQILDQTPVKELVSLKWKRYGRPYFCMLGAIYLLYIICFTMCCIYRPLKPRTNNRTSPRDNTLLQQKLLQEAYMTPKDDIRLVGELVTVIGAIIILLVEVPDIFRMGVTRFFGQTILGGPFHVLIITYAFMVLVTMVMRLISASGEVVPMSFALVLGWCNVMAFARGFQMLGPFTIMIQKMIFGDLMRFCWLMAVVILGFASAFYIIFQTEDPEELGHFYDYPMALFSTFELFLTIIDGPANYNVDLPFMYSITYAAFAIIATLLMLNLLIAMMGDTHWRVAHERDELWRAQIVATTVMLERKLPRCLWPRSGICGREYGLGDRWFLRVEDRQDLNRQRIQRYAQAFHTRGSEDLDKDSVEKLELGCPFSPHLSLPMPSVSRSTSRSSANWERLRQGTLRRDLRGIINRGLEDGESWEYQILVPRGSAAAWSHPQFEK
- stoichiometry N [16]: 4
